Reference: US4578468A, “Antibiotic LL-D42067β” (American Cyanamid Company, priority 1984, dated 1986)
In brackets after ≈: the same amount, converted by molar mass.

Key:
[1] = poultry; subject of a copending application; cited from earlier work
[2] = system: Saccharomyces cerevisiae; test: in vitro antimicrobial spectrum, agar plate dilution (MIC); format: cell-based; conditions: strain Y 15, 18 hours, 35° C., Mueller-Hinton agar
Protocol: (§1) The in vitro antimicrobial spectrum of LL-D42067β was determined by the agar plate dilution method with Mueller-Hinton agar and an inoculum of each test organism of approximately 10^4 colony forming units delivered by the Steers replicating device. The minimal inhibitory concentration (MIC) in mcg/ml was defined as the lowest concentration of LL-D42067β that inhibited visible growth after 18 hours incubation at 35° C.

[3] = system: Acinetobacter calcoaceticus; test: as above; format: cell-based; conditions: strain STFD 79-17, 18 hours, 35° C., Mueller-Hinton agar
Protocol: as §1

[4] = system: Candida albicans; test: as above; format: cell-based; conditions: strain CA 300, 18 hours, 35° C., Mueller-Hinton agar
Protocol: as §1

[5] = system: Mycobacterium smegmatis; test: as above; format: cell-based; conditions: Mycolicibacterium smegmatis, ATCC607; strain ATCC 607; 18 hours, 35° C., Mueller-Hinton agar
Protocol: as §1

[6] = system: Streptococcus mutans; test: as above; format: cell-based; conditions: 35° C., Mueller-Hinton agar
Protocol: as §1

[7] = system: Staphylococcus aureus; test: as above; format: cell-based; conditions: Mueller-Hinton agar
Protocol: as §1

[8] = system: Escherichia coli; test: as above; format: cell-based; conditions: 35° C., Mueller-Hinton agar
Protocol: as §1

[9] = system: Staphylococcus epidermidis; test: as above; format: cell-based; conditions: ATCC12228, strain ATCC 12228, 18 hours, 35° C., Mueller-Hinton agar
Protocol: as §1

[10] = system: gram-positive bacteria; test: in vitro antimicrobial spectrum, summary; format: cell-based; conditions: summary of Table VI
Protocol: as §1

[11] = system: yeasts; test: in vitro antimicrobial spectrum, summary; format: cell-based; conditions: summary of Table VI
Protocol: as §1

COc1c2c(c(O)c3c(=O)c4c(oc13)[C@@H](O)CC[C@@H]4O)-c1c3c(c4cc(C)[nH]c(=O)c4c1O)OCO[C@H]3C2 (relative stereo) [LL-D42067β]
anticoccidial effect (in words) [1]: effective
MIC [2]: 512 µg/mL (≈ 982 µM)
MIC [3]: 512 µg/mL (≈ 982 µM)
MIC [4]: 512 µg/mL (≈ 982 µM)
MIC [5]: 512 µg/mL (≈ 982 µM)
MIC ([6]; ATCC27352, strain ATCC 27352-1, 18 hours): 0.25 µg/mL (≈ 0.479 µM)
MIC ([6]; strain BHI (b), 18 hours): 0.25 µg/mL (≈ 0.479 µM)
MIC ([7]; 18 h, strain LL No. 45, 35° C.): 0.12 µg/mL (≈ 0.23 µM)
MIC ([7]; ATCC25923, 18 h, strain ATCC 25923, 35° C.): 0.25 µg/mL (≈ 0.479 µM)
MIC ([8]; ATCC25922, strain ATCC 25922, 18 hours): 512 µg/mL (≈ 982 µM)
MIC ([8]; strain No. 311, 18 hours): 512 µg/mL (≈ 982 µM)
MIC [9]: 0.25 µg/mL (≈ 0.479 µM)
antibacterial activity (in words) [10]: active
activity against yeasts (in words) [11]: moderately active
